{"source": "patent US9950062B2", "about": "“Compounds and compositions as TLR activity modulators” (priority 2009, dated 2018)", "key": {"[1]": {"test": "Binding to aluminum hydroxide adjuvant, HPLC of supernatant", "assay_type": "physicochemical", "details": "100 μg/dose, room temperature and 37° C., 1, 5 and 24 hours", "protocol": "The binding of the compounds of Formula (I) provided herein to aluminum-containing adjuvants at pH 9 and pH 6.5 was evaluated using HPLC to monitor the presence of the compound of Formula (I) in the supernatant.\n(§1) Compound 1 (0.5 mg/mL) was dissolved in 10 mM NaOH and added to aluminum hydroxide adjuvant (2 mg/mL) resulting in a 100 μg/dose formulation. The supernatant was evaluated with HPLC using a ballistic gradient (from 10% CH3CN-0.1% TFA to 100% CH3CN-0.1% TFA in 2.5 minutes) on a C18 ([…]×4.6 mm) ACE column at 45° C. To evaluate the effect of supernatant temperature and incubation time on binding, the supernatant was evaluated at a supernatant temperature of room temperature and at 37° C. after 1 hour, 5 hours and 24 hours. A control without aluminum hydroxide was also evaluated.\n(§2) Compound 5 (1 mg/mL) was dissolved in 10 mM NaOH and added to aluminium hydroxide adjuvant (2 mg/mL) resulting in a 100 μg/dose formulation. The supernatant was evaluated with HPLC using a ballistic gradient (from 10% CH3CN-0.1% TFA to 100% CH3CN-0.1% TFA in 2.5 minutes) on a C18 ([…]×4.6 mm) ACE column at 45° C. To evaluate the effect of supernatant temperature and incubation time on binding, the supernatant was evaluated at a supernatant temperature of room temperature and at 37° C. after 1 hour, 5 hours and 24 hours. A control without aluminum hydroxide was also evaluated.\nas §1, with “to aluminium” for “to aluminum”, “formulation. The pH of the solution was adjusted to pH 6.5 using HCl.” for “formulation.”\nas §2, with “histidine buffer (1 mg/mL)” for “NaOH”"}, "[2]": {"test": "Confocal microscopy of aluminium hydroxide adjuvant mixed with compound", "assay_type": "physicochemical", "details": "adjuvant 3 mg/ml, compound 0.25 mg/ml", "excerpt": "Compound 1 is intrinsically fluorescent."}, "Solubility": {"test": "Solubility", "assay_type": "physicochemical"}, "[3]": {"test": "Phosphate desorption and organic solvent extraction from aluminum hydroxide, HPLC", "assay_type": "physicochemical", "protocol": "An organic solvent extraction method was used to evaluate whether compound 1 was covalently bound to aluminum hydroxide. The formulation was prepared as follows: 2 mg/ml aluminum hydroxide, 100 μg/dose compound 1, 10 mM histidine buffer) and the pH was adjusted to 9. A control formulation without aluminum hydroxide was also prepared.\nOne ml of the formulation containing Alum was mixed with 1 ml of KH2PO4 1M pH 9 (0.5M final conc, pH 9) and was left in gentle agitation overnight at 37° C. to allow desorption of compound 1 (compound 5) from the aluminum hydroxide via ligand exchange with the phosphate anions. Organic extraction was then performed: 1 ml of each sample was mixed with 1 ml of n-butanol and vortexed. After the formation of 2 phases, the upper phase (butanol) was recovered, dried with N2 and resuspended in MeOH/10 mM NaOH. HPLC analysis was run both for the formulation supernatants and for the butanol extracted samples (C18 column; 0-100% B in 2 min; A=0.1% TFA in H2O; B=0.1% TFA in ACN). […]"}, "[4]": {"test": "Muscle levels 24 hours after intramuscular injection", "details": "24 hours after intramuscular injection (100 μg) with protein antigens, Balb/C mice"}, "[5]": {"test": "Adsorption to and desorption from aluminum hydroxide, HPLC (compound-modified alum formulation)", "assay_type": "physicochemical", "details": "alum formulation as for compound 1", "protocol": "SDS-PAGE was used to evaluate the effect of the binding of compound 1 to aluminum hydroxide adjuvant on the ability of MenB antigens to bind to aluminum hydroxide adjuvant. Compound 1 was dissolved in 10 mM NaOH at 0.5 mg/ml final concentration. Alum and Compound 1 were combined at 1:6 (Compound 1:Alum) weight ratio in the presence of 10 mM Histidine final concentration. The pH was adjusted to 9.2 and the mixture was gently agitated for 3 hours at room temperature, allowing the reaction to occur. The mixture was centrifuged at 5000×g for 10 minutes and the supernatant discarded. The pellet (i.e. the compound 1-modified Alum) was resuspended in the initial Alum buffer to obtain the starting alum concentration. The pH was adjusted to 6.5. The modified Alum was then used for the formulation with the MenB antigens.\nThe adsorption of compound 16 and compound 17 to aluminum hydroxide was also evaluated using the alum formulation described above for compound 1. […] In addition, SDS-PAGE analysis of antigen binding in the presence of compound 16 or compound 17 was carried out as described above."}, "[6]": {"test": "Adsorption to aluminum hydroxide, LC-MS/MS of supernatant", "protocol": "The resulting solution was diluted 10-fold with blank histidine buffer to a final compound concentration of 0.1 mg/mL. Diluted solutions were incubated at 37° C. for 5 hours. The samples were centrifuged at 14,000 rpm for 10 minutes to pellet the insoluble. The supernatant (along with an internal standard) was then evaluated by LC-MS/MS using a ballistic gradient (from 5% CH3CN-0.5% formic acid to 95% CH3CN-1.0% formic acid in 3.5 minutes) on a Waters Atlantis dC18 (50 mm×2.1 mm) column at room temperature against a calibration curve prepared at known compound concentrations ranging from 0.005 to 50 μM. The concentration in the supernatant was calculated as % unbound to alum compared to control; the % bound to alum was calculated as 100% minus % unbound."}, "[7]": {"test": "Systemic serum exposure after intramuscular injection", "assay_type": "in vivo", "details": "intramuscular injection 100 μg (4 mg/kg), Balb/C mice", "protocol": "Systemic serum exposure of the compounds is followed for 24 hours."}, "[8]": {"details": "pH 9, 10 mM NaOH, aluminum hydroxide 2 mg/mL"}, "[9]": {"details": "with aluminium hydroxide adjuvant"}, "[10]": {"details": "without aluminium hydroxide adjuvant"}, "[11]": {"details": "10 mM histidine buffer pH 6.8, final compound concentration 0.1 mg/mL, 37° C. for 5 hours, 100% minus % unbound"}}}
{"smiles": "Cc1ccc2c(c1)nc(N)c1ncc(CCc3ccc(OCCCP(=O)(O)O)cc3C)cc12", "note": "[Compound 1, 3-(4-(2-(5-amino-8-methylbenzo[f][1,7]naphthyridin-2-yl)ethyl)-3-methylphenoxy)propylphosphonic acid]", "values": [{"measurement": "presence of compound in supernatant when aluminum hydroxide included (HPLC)", "setting": "[1]; pH 6.5 (adjusted with HCl), aluminium hydroxide 2 mg/mL", "result": "not present in the supernatant"}, {"measurement": "presence of compound in supernatant when aluminum hydroxide included (HPLC)", "setting": "[1]; [8]", "result": "not present in the supernatant"}, {"measurement": "association with aluminium hydroxide adjuvant particles (confocal microscopy)", "setting": "[2]", "result": "associates with particles of the insoluble metal salt"}, {"measurement": "solubility in histidine buffer", "setting": "Solubility", "result": "poorly soluble"}, {"measurement": "quantity of compound in supernatant of formulation treated with KH2PO4 (desorption by phosphate anions)", "setting": "[3]; 0.5M KH2PO4 pH 9, overnight at 37° C.", "result": "Increased quantities"}, {"measurement": "Concentration", "setting": "[3]; control/extract: n-butanol extract of control formulation without aluminum hydroxide", "result": "217 ± 1", "unit": "µg/mL"}, {"measurement": "Concentration", "setting": "[3]; extaract: n-butanol extract of formulation with alum", "result": "27 ± 1", "unit": "µg/mL"}, {"measurement": "Concentration", "setting": "[3]; phosphate supernatant: formulation with alum treated with 0.5M KH2PO4 pH 9 overnight at 37° C.", "result": "59 ± 1", "unit": "µg/mL"}, {"measurement": "Concentration", "setting": "[3]; phosphate/extract: n-butanol extract of KH2PO4-treated formulation with alum", "result": "119 ± 1", "unit": "µg/mL"}, {"measurement": "Concentration", "setting": "[3]; supernatant control: formulation without aluminum hydroxide", "result": "329 ± 1", "unit": "µg/mL"}, {"measurement": "Concentration", "setting": "[3]; supernatant of formulation with 2 mg/ml aluminum hydroxide, 10 mM histidine buffer, pH 9", "result": "5 ± 1", "unit": "µg/mL"}]}
{"smiles": "Cc1ccc2c(c1)nc(N)c1ncc(CCc3ccc(OCCCC(F)(F)P(=O)(O)O)cc3C)cc12", "note": "[Compound 5, 4-(4-(2-(5-amino-8-methylbenzo[f][1,7]naphthyridin-2-yl)ethyl)-3-methylphenoxy)-1,1-difluorobutylphosphonic acid]", "values": [{"measurement": "presence of compound in supernatant when aluminum hydroxide included (HPLC)", "setting": "[1]; pH 6.7, 10 mM histidine buffer, aluminium hydroxide 2 mg/mL", "result": "not present in the supernatant"}, {"measurement": "presence of compound in supernatant when aluminum hydroxide included (HPLC)", "setting": "[1]; [8]", "result": "not present in the supernatant"}]}
{"smiles": "Cc1cc(OCCOCCOCCC(F)(F)P(=O)(O)O)ccc1CCc1cnc2c(N)nc3cc(CCC(=O)O)ccc3c2c1", "note": "[Compound 17, 3-(5-amino-2-(4-(2-(2-(3,3-difluoro-3-phosphonopropoxy)ethoxy)ethoxy)-2-methylphenethyl)benzo[f][1,7]naphthyridin-8-yl)propanoic acid]", "values": [{"measurement": "muscle level of compound", "setting": "[4]; [9]", "result": "readily detected"}, {"measurement": "muscle level of compound", "setting": "[4]; [10]", "result": "undetectable"}, {"measurement": "compound in supernatant after addition of aluminum hydroxide (HPLC)", "setting": "[5]", "result": "no compound was observed in the supernatant"}, {"measurement": "% bound to alum", "setting": "[6]; [11]", "result": 96.2, "unit": "%"}]}
{"smiles": "Cc1cc(OCCCC(F)(F)P(=O)(O)O)ccc1CCc1cnc2c(N)nc3cc(CCC(=O)O)ccc3c2c1", "note": "[Compound 16, 3-(5-amino-2-(4-(4,4-difluoro-4-phosphonobutoxy)-2-methylphenethyl)benzo[f][1,7]naphthyridin-8-yl)propanoic acid]", "values": [{"measurement": "muscle level of compound", "setting": "[4]; [9]", "result": "readily detected"}, {"measurement": "muscle level of compound", "setting": "[4]; [10]", "result": "undetectable"}, {"measurement": "serum concentration profile over 24 hours", "setting": "[7]; adsorbed to aluminium hydroxide adjuvant", "result": "much flatter response which is sustained for a longer period"}, {"measurement": "serum concentration profile over 24 hours", "setting": "[7]; unadsorbed (buffer alone)", "result": "high initial serum concentration which rapidly declines"}, {"measurement": "compound in supernatant after addition of aluminum hydroxide (HPLC)", "setting": "[5]", "result": "no compound was observed in the supernatant"}, {"measurement": "% bound to alum", "setting": "[6]; [11]", "result": 94.5, "unit": "%"}]}
{"smiles": "Cc1cc(OCCOCCC(F)(F)P(=O)(O)O)ccc1CCc1cnc2c(N)nc3cc(CCC(=O)O)ccc3c2c1", "note": "[Compound 19, 3-(5-amino-2-(4-(2-(3,3-difluoro-3-phosphonopropoxy)ethoxy)-2-methylphenethyl)benzo[f][1,7]naphthyridin-8-yl)propanoic acid]", "values": [{"measurement": "% bound to alum", "setting": "[6]; 5 h, 0.1 mg/mL, pH 6.8", "result": 96.0, "unit": "%"}]}
